Tests used:
Experiment in all cases: biochemical
Set-up in all cases: KINOMEscan competition binding panel (Eurofins DiscoverX), single concentration, percent inhibition
Conditions in all cases: read-out: 15 at 1 µM % inhibition
ALK(L1196M) = ALK(L1196M) (Homo sapiens, UniProt Q9UM73, L1196M)
In short: (§1)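 Binding was profiled in the KINOMEscan panel of over 400 human kinases, with each compound tested at a single concentration of 1 µM to map selectivity.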

CAMK1G = CAMK1G (Homo sapiens, UniProt Q96NX5)
In short: as §1

DAPK2 = DAPK2 (Homo sapiens, UniProt Q9UIK4)
In short: as §1

EGFR(T790M) = EGFR(T790M) (Homo sapiens, UniProt P00533, T790M)
In short: as §1

EPHA8 = EPHA8 (Homo sapiens, UniProt P29322)
In short: as §1

EPHB1 = EPHB1 (Homo sapiens, UniProt P54762)
In short: as §1

ERBB2 = ERBB2 (Homo sapiens, UniProt P04626)
In short: as §1

ERK2 = target: T1, ERK2 (Homo sapiens, UniProt P28482)
T1 construct: gene MAPK1
In short: as §1

ERN1 = ERN1 (Homo sapiens, UniProt O75460)
In short: as §1

FLT3(ITD,D835V) = FLT3(ITD,D835V) (Homo sapiens, UniProt P36888, D835V/ITD)
In short: as §1

[1] = target: T2, JAK1(JH2domain-pseudokinase) (Homo sapiens, UniProt P23458)
T2 construct: JH2domain-pseudokinase
In short: as §1

KIT(V559D,V654A) = KIT(V559D,V654A) (Homo sapiens, UniProt P10721, V559D/V654A)
In short: as §1

MAK = MAK (Homo sapiens, UniProt P20794)
In short: as §1

MUSK = MUSK (Homo sapiens, UniProt O15146)
In short: as §1

NDR2 = target: T3, NDR2 (Homo sapiens, UniProt Q9Y2H1)
T3 construct: gene STK38L
In short: as §1

PAK3 = PAK3 (Homo sapiens, UniProt O75914)
In short: as §1

PIK3CA = PIK3CA (Homo sapiens, UniProt P42336)
In short: as §1

SBK1 = SBK1 (Homo sapiens, UniProt Q52WX2)
In short: as §1

TESK1 = TESK1 (Homo sapiens, UniProt Q15569)
In short: as §1

TGFBR2 = TGFBR2 (Homo sapiens, UniProt P37173)
In short: as §1

TSSK1B = TSSK1B (Homo sapiens, UniProt Q9BXA7)
In short: as §1

[2] = target: T4, TYK2(JH1domain-catalytic) (Homo sapiens, UniProt P29597)
T4 construct: JH1domain-catalytic
In short: as §1

TYRO3 = TYRO3 (Homo sapiens, UniProt Q06418)
In short: as §1

p38-alpha = target: T5, p38-alpha (Homo sapiens, UniProt Q16539)
T5 construct: gene MAPK14
In short: as §1

T3 sequence (Q9Y2H1 whole entry): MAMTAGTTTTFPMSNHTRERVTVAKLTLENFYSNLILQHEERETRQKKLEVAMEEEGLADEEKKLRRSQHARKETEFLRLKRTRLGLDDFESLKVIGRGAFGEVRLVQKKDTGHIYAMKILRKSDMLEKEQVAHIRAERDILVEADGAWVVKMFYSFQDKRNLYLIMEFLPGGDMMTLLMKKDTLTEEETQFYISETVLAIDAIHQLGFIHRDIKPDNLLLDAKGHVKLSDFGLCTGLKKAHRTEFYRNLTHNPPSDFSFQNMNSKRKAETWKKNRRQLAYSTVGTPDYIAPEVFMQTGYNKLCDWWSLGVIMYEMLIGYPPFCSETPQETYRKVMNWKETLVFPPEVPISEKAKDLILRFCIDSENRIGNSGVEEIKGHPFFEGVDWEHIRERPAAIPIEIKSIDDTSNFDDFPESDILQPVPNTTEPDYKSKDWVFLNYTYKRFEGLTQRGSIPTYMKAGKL
KIT(V559D,V654A), sequence (P10721 whole entry V559D/V654A): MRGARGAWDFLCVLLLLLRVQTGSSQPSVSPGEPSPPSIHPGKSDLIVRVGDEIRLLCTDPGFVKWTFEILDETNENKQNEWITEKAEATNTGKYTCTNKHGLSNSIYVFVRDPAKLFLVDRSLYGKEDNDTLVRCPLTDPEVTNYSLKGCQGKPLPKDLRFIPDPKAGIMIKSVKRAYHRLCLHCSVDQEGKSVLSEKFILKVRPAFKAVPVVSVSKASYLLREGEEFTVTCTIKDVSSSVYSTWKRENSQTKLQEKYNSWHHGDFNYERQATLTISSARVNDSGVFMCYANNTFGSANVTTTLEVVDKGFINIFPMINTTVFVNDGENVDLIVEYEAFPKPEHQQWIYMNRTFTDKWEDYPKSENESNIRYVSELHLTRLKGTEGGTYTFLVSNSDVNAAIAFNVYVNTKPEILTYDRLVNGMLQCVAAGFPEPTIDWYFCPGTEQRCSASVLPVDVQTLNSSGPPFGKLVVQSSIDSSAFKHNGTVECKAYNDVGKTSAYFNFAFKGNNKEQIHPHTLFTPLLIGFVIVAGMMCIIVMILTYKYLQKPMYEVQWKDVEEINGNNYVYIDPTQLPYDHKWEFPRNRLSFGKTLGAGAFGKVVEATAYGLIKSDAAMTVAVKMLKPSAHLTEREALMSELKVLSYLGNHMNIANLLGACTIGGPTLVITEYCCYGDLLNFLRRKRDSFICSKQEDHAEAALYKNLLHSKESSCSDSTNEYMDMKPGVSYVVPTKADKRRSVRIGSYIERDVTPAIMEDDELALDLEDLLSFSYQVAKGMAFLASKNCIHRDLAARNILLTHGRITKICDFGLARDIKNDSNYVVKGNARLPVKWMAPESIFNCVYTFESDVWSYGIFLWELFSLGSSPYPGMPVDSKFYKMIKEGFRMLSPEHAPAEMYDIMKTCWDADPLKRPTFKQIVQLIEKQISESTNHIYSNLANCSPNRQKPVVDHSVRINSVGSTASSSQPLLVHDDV
ERBB2, sequence (P04626 whole entry): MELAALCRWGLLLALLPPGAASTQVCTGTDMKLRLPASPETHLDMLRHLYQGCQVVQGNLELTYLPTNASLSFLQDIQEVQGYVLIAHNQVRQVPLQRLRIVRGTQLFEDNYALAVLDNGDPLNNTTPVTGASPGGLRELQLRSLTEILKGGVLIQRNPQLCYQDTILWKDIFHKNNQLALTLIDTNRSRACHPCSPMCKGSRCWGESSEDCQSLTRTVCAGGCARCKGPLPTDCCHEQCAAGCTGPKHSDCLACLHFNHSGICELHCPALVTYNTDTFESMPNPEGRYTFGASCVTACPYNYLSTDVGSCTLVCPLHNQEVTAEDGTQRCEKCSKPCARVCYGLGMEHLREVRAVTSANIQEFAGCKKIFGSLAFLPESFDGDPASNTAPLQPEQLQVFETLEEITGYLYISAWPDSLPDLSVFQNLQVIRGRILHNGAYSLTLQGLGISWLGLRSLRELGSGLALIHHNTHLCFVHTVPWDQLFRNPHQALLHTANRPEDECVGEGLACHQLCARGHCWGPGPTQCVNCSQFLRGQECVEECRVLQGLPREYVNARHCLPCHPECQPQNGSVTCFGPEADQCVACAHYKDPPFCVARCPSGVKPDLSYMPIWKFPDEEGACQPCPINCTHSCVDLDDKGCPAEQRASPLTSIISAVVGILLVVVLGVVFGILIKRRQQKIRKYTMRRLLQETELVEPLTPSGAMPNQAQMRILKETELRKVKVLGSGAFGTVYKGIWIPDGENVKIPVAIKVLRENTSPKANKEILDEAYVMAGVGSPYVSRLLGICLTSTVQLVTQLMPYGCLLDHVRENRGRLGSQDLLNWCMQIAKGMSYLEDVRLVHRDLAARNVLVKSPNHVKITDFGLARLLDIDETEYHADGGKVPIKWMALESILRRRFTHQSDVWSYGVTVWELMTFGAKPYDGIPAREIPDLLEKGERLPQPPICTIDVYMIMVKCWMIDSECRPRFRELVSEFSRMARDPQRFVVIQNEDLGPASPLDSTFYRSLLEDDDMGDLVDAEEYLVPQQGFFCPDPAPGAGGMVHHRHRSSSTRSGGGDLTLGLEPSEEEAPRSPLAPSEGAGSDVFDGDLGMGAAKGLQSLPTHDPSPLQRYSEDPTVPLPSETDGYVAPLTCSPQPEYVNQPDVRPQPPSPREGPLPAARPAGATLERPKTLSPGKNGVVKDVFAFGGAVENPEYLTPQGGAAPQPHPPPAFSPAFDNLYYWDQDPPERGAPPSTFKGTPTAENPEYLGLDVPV
ALK(L1196M), sequence (Q9UM73 whole entry L1196M): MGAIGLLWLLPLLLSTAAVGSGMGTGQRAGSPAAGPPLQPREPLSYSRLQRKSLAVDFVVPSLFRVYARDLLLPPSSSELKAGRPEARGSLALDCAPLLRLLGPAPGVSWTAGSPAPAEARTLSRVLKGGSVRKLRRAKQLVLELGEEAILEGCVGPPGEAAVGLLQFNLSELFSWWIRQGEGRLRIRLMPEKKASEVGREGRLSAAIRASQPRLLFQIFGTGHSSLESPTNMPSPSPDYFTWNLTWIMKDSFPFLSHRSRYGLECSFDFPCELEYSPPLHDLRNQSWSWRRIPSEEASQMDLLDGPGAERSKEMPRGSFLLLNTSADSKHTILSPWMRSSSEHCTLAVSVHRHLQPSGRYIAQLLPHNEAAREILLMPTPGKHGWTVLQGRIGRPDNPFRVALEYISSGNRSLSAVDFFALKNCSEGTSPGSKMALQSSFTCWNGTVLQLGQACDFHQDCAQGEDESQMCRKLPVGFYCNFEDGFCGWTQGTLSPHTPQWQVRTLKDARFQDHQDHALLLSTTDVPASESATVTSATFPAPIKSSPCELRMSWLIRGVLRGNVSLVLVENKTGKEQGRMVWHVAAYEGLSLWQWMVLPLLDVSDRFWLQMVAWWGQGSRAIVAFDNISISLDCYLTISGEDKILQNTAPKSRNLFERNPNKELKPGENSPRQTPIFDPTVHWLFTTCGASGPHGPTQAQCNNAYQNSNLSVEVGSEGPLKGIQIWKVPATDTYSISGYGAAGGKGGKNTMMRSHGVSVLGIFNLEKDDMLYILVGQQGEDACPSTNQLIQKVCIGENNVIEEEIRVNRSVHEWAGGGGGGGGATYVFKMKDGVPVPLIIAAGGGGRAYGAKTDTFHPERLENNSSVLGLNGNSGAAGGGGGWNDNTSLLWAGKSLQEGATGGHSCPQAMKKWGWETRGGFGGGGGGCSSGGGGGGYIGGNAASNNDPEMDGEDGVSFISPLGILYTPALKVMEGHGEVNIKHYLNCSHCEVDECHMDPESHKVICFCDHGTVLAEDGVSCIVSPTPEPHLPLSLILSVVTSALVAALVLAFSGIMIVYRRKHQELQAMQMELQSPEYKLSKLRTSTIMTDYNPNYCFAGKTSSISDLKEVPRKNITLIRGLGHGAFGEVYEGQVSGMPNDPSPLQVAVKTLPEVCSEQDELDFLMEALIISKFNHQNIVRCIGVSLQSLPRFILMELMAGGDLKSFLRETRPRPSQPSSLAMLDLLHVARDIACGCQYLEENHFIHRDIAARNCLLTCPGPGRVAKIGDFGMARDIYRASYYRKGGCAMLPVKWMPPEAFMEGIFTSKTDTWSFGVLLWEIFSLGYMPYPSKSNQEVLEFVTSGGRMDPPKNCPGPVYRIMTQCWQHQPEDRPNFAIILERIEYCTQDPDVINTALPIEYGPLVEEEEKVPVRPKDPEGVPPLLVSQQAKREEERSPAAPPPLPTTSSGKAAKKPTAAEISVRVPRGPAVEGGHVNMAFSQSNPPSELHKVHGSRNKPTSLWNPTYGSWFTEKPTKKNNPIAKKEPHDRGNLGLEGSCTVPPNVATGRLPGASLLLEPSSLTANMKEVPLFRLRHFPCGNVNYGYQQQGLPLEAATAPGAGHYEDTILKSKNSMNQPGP
MAK, sequence (P20794 whole entry): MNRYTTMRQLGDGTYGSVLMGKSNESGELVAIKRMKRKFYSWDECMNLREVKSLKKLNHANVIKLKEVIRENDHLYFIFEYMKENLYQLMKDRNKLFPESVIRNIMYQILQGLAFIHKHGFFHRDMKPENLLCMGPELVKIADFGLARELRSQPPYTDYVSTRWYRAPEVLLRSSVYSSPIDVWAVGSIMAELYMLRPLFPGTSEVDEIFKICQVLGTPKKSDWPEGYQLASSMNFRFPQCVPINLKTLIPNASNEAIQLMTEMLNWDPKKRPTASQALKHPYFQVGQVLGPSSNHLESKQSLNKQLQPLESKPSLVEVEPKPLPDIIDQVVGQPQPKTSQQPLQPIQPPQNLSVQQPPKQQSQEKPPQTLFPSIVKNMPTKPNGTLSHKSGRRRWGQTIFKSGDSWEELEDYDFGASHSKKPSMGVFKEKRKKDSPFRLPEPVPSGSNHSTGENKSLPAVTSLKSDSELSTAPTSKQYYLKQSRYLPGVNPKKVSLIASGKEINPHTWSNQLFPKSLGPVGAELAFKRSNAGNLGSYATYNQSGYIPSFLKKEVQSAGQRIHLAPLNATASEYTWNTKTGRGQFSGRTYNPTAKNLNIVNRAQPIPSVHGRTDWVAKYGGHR

inhibition at 1 µM (ALK(L1196M)): 12%
inhibition at 1 µM (CAMK1G): 0%
inhibition at 1 µM (DAPK2): 0%
inhibition at 1 µM (EGFR(T790M)): 25%
inhibition at 1 µM (EPHA8): 3%
inhibition at 1 µM (EPHB1): 0%
inhibition at 1 µM (ERBB2): 1%
inhibition at 1 µM (ERK2): 0%
inhibition at 1 µM (ERN1): 3%
inhibition at 1 µM (FLT3(ITD,D835V)): 26%
inhibition at 1 µM [1]: 26%
inhibition at 1 µM (KIT(V559D,V654A)): 0%
inhibition at 1 µM (MAK): 8%
inhibition at 1 µM (MUSK): 0%
inhibition at 1 µM (NDR2): 6%
inhibition at 1 µM (PAK3): 4%
inhibition at 1 µM (PIK3CA): 13%
inhibition at 1 µM (SBK1): 44%
inhibition at 1 µM (TESK1): 1%
inhibition at 1 µM (TGFBR2): 8%
inhibition at 1 µM (TSSK1B): 9%
inhibition at 1 µM [2]: 0%
inhibition at 1 µM (TYRO3): 0%
inhibition at 1 µM (p38-alpha): 0%
Compound: CNS(=O)(=O)c1ccc(N(C)C)c(Nc2nc(C)nc3cc(OC)c(OC)cc23)c1 [compound 15, 3-((6,7-dimethoxy-2-methylquinazolin-4-yl)amino)-4-(dimethylamino)-N-methylbenzenesulfonamide]

Reference: article PMC7180948, “New Insights into 4-Anilinoquinazolines as Inhibitors of Cardiac Troponin I–Interacting Kinase (TNNi3K)” (Molecules, 2020)
